Test results from patent publication US11759464B2, “Gonadotropin-releasing hormone antagonist dosing regimens for treating uterine fibroids and reducing menstrual blood loss” (ObsEva S.A., priority 2017, dated 2023).

Tests used:
Format in all cases: in vivo
[1] = test system: healthy human female subjects; test: serum β17-estradiol (E2) concentration during 42-day once-daily treatment
Procedure: To assess the effects of compound (II) on serum β17-estradiol concentration and menstrual blood loss, a total of 75 healthy human female subjects were divided into five treatment groups, as described in Table 1, below. The subjects were screened for a period of four weeks prior to the commencement of treatment with compound (II). At the conclusion of the four week screening period, the subjects in each treatment arm were administered an equivalent dosage of norethindrone acetate of 5 mg×3 times daily. This 15 mg/day dosage was administered for a total of 11 days so as to allow synchronization of menses among the subjects. The subjects were subsequently not treated for the ensuing 4 days. Following this withdrawal period, the subjects were treated with compound (II), with or without add-back therapy, once daily for 42 days according to the dosages set forth in Table 1. Following the 42-day treatment cycle, the subjects were further monitored for a period of 13 days. As used herein, the add-back regime of 1.0 mg/day β17-estradiol and 0.5 mg/day norethindrone acetate is referred to as the “high-dose” or […] add-back dosage, while the add-back regime of 0.5 mg/day β17-estradiol and 0.1 mg/day norethindrone acetate was referred to as the “low-dose” or “LD” add-back dosage. This labeling convention is used throughout this Example and is additionally referred to in the Figures.

[2] = test system: healthy human female subjects; test: biomarkers of bone mineral density (creatinine-normalized deoxypyridinoline); settings: 100 mg/day + 1.0 mg/day E2 and 0.5 mg/day norethindrone acetate, urine (FIG. 25)
Procedure: To assess the effects of compound (II) on serum β17-estradiol concentration and menstrual blood loss, a total of 75 healthy human female subjects were divided into five treatment groups, as described in Table 1, below. The subjects were screened for a period of four weeks prior to the commencement of treatment with compound (II). At the conclusion of the four week screening period, the subjects in each treatment arm were administered an equivalent dosage of norethindrone acetate of 5 mg×3 times daily. This 15 mg/day dosage was administered for a total of 11 days so as to allow synchronization of menses among the subjects. The subjects were subsequently not treated for the ensuing 4 days. Following this withdrawal period, the subjects were treated with compound (II), with or without add-back therapy, once daily for 42 days according to the dosages set forth in Table 1. Following the 42-day treatment cycle, the subjects were further monitored for a period of 13 days. In addition to assessing the ability of compound (II) to modulate serum E2 and progesterone levels and to curtail menstrual bleeding, compound (II) was evaluated for its effects on biomarkers of bone mineral density (FIGS. 25-29). These markers include creatinine-normalized deoxypyridinoline (DPD), which is excreted in larger quantities when bone resorption is increased.

[3] = test system: healthy human female subjects; test: menstrual bleeding pattern (amenorrhea) during treatment; settings: for Amenorrhea (no bleeding), subjects / Amenorrhea + spotting only, subjects: last 4 weeks of treatment
Procedure: To assess the effects of compound (II) on serum β17-estradiol concentration and menstrual blood loss, a total of 75 healthy human female subjects were divided into five treatment groups, as described in Table 1, below. The subjects were screened for a period of four weeks prior to the commencement of treatment with compound (II). At the conclusion of the four week screening period, the subjects in each treatment arm were administered an equivalent dosage of norethindrone acetate of 5 mg×3 times daily. This 15 mg/day dosage was administered for a total of 11 days so as to allow synchronization of menses among the subjects. The subjects were subsequently not treated for the ensuing 4 days. Following this withdrawal period, the subjects were treated with compound (II), with or without add-back therapy, once daily for 42 days according to the dosages set forth in Table 1. Following the 42-day treatment cycle, the subjects were further monitored for a period of 13 days. To assess the effects of compound (II) on menstrual blood loss, the volume of menstrual blood lost by each subject was evaluated over the course of the entirety of the study, including the 11-day screening period, 4-day withdrawal period, 42-treatment period, and 13-day post-treatment evaluation period. Assessment of menstrual blood loss was conducted using an electronic diary method, as subjects recorded daily whether their bleeding for each day was heavy, moderate, or light spotting.

[4] = 100 mg daily + add-back E2/NETA 0.5 mg/0.1 mg
[5] = 100 mg daily + add-back E2/NETA 0.5 mg/0.1 mg, listed as compound (II)
[6] = 100 mg daily + add-back E2/NETA 1 mg/0.5 mg
[7] = 100 mg daily + add-back E2/NETA 1 mg/0.5 mg, listed as compound (II)
[8] = 100 mg daily, no add-back, listed as compound (II)
[9] = 200 mg daily + add-back E2/NETA 1 mg/0.5 mg
[10] = 200 mg daily + add-back E2/NETA 1 mg/0.5 mg, listed as compound (II)
[11] = 200 mg daily, no add-back, listed as compound (II)

COc1cc(F)c(-n2c(=O)[nH]c3csc(C(=O)O)c3c2=O)cc1OCc1c(OC)ccc(F)c1F [Compound (II), choline 3-[2-fluoro-5-(2,3-difluoro-6-methoxybenzyloxy)-4-methoxyphenyl]-2,4-dioxo-1,2,3,4-tetrahydrothieno [3,4d]pyrimidine-5-carboxylate]
Median E2 level, E2 Week 1 ([1]; 100 mg daily + add-back E2/NETA 0.5 mg/0.1 mg, n = 14, after week 1): 25 pg/mL
Median E2 level, E2 Week 6 ([1]; 100 mg daily + add-back E2/NETA 0.5 mg/0.1 mg, n = 14, after week 6): 40 pg/mL
Median E2 level, E2 Week 1 ([1]; 100 mg daily + add-back E2/NETA 1 mg/0.5 mg, n = 15, after week 1): 35 pg/mL
Median E2 level, E2 Week 6 ([1]; 100 mg daily + add-back E2/NETA 1 mg/0.5 mg, n = 15, after week 6): 34 pg/mL
Median E2 level, E2 Week 1 ([1]; 100 mg daily, no add-back, n = 14, after week 1): 12 pg/mL
Median E2 level, E2 Week 6 ([1]; 100 mg daily, no add-back, n = 14, after week 6): 18 pg/mL
E2 levels, majority of subjects ([1]; 100 mg/day without add-back, each of days 8, 15 and 22): less than 20 μg/ml
Median E2 level, E2 Week 1 ([1]; 200 mg daily + add-back E2/NETA 1 mg/0.5 mg, n = 15, after week 1): 27 pg/mL
Median E2 level, E2 Week 6 ([1]; 200 mg daily + add-back E2/NETA 1 mg/0.5 mg, n = 15, after week 6): 25 pg/mL
Median E2 level, E2 Week 1 ([1]; 200 mg daily, no add-back, n = 14, after week 1): 5 pg/mL
Median E2 level, E2 Week 6 ([1]; 200 mg daily, no add-back, n = 14, after week 6): 3 pg/mL
serum E2 concentrations, all subjects ([1]; 200 mg/day stand-alone arm, each of days 8, 15, 22, 29 and 36): less than 20 μg/ml
effect on median serum E2 levels ([1]; 100 or 200 mg/day, 42-day treatment cycle (FIG. 1)): reduced in a dose-dependent manner
creatinine-normalized deoxypyridinoline (DPD), comparison among arms [2]: smallest increase
Amenorrhea (no bleeding), subjects [3, 4]: 21%
Amenorrhea + spotting only, subjects [3, 4]: 57%
Amenorrhea (no bleeding), subjects [3, 5]: at least 21%
Amenorrhea + spotting only, subjects [3, 5]: at least 57%
Amenorrhea (no bleeding), subjects [3, 6]: 53%
Amenorrhea + spotting only, subjects [3, 6]: 93%
Amenorrhea (no bleeding), subjects [3, 7]: at least 53%
Amenorrhea + spotting only, subjects [3, 7]: at least 93%
Amenorrhea (no bleeding), subjects ([3]; 100 mg daily, no add-back): 86%
Amenorrhea + spotting only, subjects ([3]; 100 mg daily, no add-back): 93%
Amenorrhea (no bleeding), subjects [3, 8]: at least 86%
Amenorrhea + spotting only, subjects [3, 8]: at least 93%
Amenorrhea (no bleeding), subjects [3, 9]: 33%
Amenorrhea + spotting only, subjects [3, 9]: 60%
Amenorrhea (no bleeding), subjects [3, 10]: at least 33%
Amenorrhea + spotting only, subjects [3, 10]: at least 60%
Amenorrhea (no bleeding), subjects ([3]; 200 mg daily, no add-back): 87%
Amenorrhea + spotting only, subjects ([3]; 200 mg daily, no add-back): 100%
Amenorrhea (no bleeding), subjects [3, 11]: at least 87%
Amenorrhea + spotting only, subjects [3, 11]: 100%
effect on menstrual bleeding ([3]; 100 or 200 mg/day with or without add-back (FIGS. 20-24)): capable of inducing sustained amenorrhea
